In patent US20150126519A1, “ANTIBIOTIC COMPOUNDS AND COMPOSITIONS, AND METHODS FOR IDENTIFICATION THEREOF” (Fred Hutchinson Cancer Research Center, priority 2012, published 2015):
Where “and” joins values, the source holds several entries; their conditions need not be identical. Equal entries are not always repeated.

Legend:
E. coli gyrase = E. coli gyrase (Escherichia coli, UniProt P0AES4+P0AES6); test: Gyrase-catalysed supercoiling; assay type: biochemical; conditions: E. coli gyrase; read-out: IC50 for gyrase-catalyzed supercoiling
Chain of E. coli gyrase (P0AES4 whole entry, one chain of several): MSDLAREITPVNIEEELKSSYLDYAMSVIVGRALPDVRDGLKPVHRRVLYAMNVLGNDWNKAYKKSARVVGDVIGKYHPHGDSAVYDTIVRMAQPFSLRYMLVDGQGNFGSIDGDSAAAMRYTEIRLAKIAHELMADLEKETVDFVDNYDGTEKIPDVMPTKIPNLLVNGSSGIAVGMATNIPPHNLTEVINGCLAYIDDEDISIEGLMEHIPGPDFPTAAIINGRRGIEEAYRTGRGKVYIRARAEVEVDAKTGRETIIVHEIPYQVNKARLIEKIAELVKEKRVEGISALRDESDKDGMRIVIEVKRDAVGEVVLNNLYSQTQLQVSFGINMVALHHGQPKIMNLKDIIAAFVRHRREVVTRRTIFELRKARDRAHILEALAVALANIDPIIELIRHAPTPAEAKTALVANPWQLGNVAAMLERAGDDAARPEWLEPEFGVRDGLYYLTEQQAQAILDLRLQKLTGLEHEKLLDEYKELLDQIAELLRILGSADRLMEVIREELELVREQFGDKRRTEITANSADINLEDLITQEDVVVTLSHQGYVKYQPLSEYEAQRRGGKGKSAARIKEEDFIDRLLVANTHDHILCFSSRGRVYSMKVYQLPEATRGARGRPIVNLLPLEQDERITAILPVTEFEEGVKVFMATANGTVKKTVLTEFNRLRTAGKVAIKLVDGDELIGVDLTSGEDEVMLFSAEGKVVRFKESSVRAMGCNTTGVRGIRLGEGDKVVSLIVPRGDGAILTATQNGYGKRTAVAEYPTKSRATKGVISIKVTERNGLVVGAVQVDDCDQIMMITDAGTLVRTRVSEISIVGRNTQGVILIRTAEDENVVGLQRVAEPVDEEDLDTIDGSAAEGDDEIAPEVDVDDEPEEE
Description: Several compounds as described herein were evaluated for their ability to inhibit bacterial DNA gyrase.

[1] = tested on: E. coli cells with RecBCD (V66) or AddAB (V3065); test: T4 gene 2 mutant-sensitization assay of derivatives (FIG. 11); conditions: FIG. 11, compound 50 μM
Description: (§2) Data are the mean and SEM of 4 wells in 2 independent experiments.
A fresh overnight culture of strain V66 in LB was diluted 1:100 into LB broth with 0.1% DMSO and grown with aeration at 37° C. to an OD650 of 0.05. Each well of a 96-well plate (Costar, Corning Inc.) was prepared by adding 10 μl of compound in 20% DMSO or the appropriate control (LB with 20% DMSO) and then 100 μl of the bacterial culture (containing about 2.5×10^6 cells) or uninoculated medium was added. The OD650 of each well was read on a VERSAmax microplate reader (Molecular Devices), and the plates were incubated without shaking at 37° C. After about 1 h the OD650 of the cultures was approximately 0.1, and 10 μl of a phage suspension containing 5×10^4 phage or 2.5 μg of chloramphenicol was added to the appropriate wells. The plates were incubated for approximately 20 h and the OD650 determined.

E. coli = test: Growth of E. coli without phage infection; conditions: FIG. 11, compound 50 μM
Description: as §2
This assay was identical to the AddAB (strain V3065) screening assay, except that no phage was added to the wells.

H. pylori AddAB = H. pylori AddAB (Helicobacter pylori, UniProt O25052+O26077); test: biochemical; assay type: biochemical; conditions: purified enzyme; read-out: Nuclease IC50, H. pylori AddAB
Description: (§1) Nuclease assays measured the formation of TCA-soluble radioactive material from phage T7 [^3H] DNA (2 μg/ml; 6 μM nucleotides) substrate in a 20 min incubation at 37° C. (Eichler, D. C.; Lehman, I. R., J. Biol. Chem. 1977, 252, 499-503). AddAB assays were in 50 mM Tris-HCl (pH 8.5), 10 mM MgCl2, polyvinylpyrrolidone (1 mg/ml), 1 mM DTT, and 50 μM ATP. RecBCD assays used the same condition but with 25 μM ATP. Compounds were diluted in DMSO and added to enzyme in assay buffer on ice; final DMSO concentration was 5.0% in each assay. DNA substrate was added, and after <5 min the reactions were started by transferring the samples to 37° C. Reactions were stopped by addition of calf thymus DNA to 0.2 mg/ml and TCA to 5%. After 10 min on ice, the mixtures were centrifuged for 5 min at 16,100×g, and the soluble radioactive material determined in a scintillation counter.

E. coli RecBCD = E. coli RecBCD (Escherichia coli, UniProt P04993+P07648+P08394); test: Purified RecBCD nuclease (ds exonuclease) assay; assay type: biochemical; conditions: purified enzyme; read-out: Nuclease IC50, E.coli RecBCD
Chain of E. coli RecBCD (P04993 whole entry): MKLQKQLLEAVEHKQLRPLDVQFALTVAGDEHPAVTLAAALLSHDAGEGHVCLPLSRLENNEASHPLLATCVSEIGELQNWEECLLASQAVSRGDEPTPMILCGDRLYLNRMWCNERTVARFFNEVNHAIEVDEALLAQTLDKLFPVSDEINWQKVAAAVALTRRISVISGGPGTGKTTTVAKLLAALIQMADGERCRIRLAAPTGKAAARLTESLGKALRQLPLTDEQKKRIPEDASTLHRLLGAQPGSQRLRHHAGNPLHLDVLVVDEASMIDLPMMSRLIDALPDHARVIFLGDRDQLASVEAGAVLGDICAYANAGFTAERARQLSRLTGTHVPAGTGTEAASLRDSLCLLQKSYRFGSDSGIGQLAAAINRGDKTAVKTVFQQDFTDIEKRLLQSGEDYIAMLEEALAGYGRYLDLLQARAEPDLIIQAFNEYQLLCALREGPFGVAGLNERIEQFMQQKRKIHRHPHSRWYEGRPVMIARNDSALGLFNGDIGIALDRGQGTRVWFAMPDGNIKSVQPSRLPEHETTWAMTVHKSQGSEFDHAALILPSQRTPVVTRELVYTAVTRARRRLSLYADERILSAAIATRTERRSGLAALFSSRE
Chain of E. coli RecBCD (P08394 whole entry): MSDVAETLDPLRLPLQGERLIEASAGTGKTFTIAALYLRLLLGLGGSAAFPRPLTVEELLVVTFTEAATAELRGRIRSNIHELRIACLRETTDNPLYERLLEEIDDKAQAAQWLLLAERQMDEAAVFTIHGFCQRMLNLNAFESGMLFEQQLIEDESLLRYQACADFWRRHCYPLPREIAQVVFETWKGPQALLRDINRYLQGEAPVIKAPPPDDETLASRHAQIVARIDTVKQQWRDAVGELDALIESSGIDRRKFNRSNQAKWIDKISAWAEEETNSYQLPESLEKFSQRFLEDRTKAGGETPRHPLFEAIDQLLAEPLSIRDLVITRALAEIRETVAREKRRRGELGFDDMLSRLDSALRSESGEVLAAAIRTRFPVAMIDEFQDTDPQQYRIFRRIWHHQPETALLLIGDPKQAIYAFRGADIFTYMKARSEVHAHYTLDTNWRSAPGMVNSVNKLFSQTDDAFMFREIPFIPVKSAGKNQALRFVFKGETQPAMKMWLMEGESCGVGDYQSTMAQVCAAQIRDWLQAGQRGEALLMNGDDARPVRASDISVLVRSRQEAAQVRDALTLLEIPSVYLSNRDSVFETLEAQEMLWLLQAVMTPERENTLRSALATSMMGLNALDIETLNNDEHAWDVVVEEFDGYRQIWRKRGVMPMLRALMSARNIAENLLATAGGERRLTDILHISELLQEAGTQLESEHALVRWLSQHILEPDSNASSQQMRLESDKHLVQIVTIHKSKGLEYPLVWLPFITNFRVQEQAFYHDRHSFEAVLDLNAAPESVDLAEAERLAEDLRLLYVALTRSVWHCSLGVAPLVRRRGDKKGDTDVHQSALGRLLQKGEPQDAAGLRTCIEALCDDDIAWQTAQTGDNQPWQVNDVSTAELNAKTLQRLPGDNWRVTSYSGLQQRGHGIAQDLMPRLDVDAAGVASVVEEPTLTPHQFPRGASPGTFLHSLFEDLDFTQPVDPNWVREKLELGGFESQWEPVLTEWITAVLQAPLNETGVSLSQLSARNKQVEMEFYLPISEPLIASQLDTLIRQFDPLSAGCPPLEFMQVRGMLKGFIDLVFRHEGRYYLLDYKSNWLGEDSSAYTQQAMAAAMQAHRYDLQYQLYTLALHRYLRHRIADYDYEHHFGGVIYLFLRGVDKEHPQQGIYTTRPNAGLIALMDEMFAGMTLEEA
Chain of E. coli RecBCD (P07648 whole entry): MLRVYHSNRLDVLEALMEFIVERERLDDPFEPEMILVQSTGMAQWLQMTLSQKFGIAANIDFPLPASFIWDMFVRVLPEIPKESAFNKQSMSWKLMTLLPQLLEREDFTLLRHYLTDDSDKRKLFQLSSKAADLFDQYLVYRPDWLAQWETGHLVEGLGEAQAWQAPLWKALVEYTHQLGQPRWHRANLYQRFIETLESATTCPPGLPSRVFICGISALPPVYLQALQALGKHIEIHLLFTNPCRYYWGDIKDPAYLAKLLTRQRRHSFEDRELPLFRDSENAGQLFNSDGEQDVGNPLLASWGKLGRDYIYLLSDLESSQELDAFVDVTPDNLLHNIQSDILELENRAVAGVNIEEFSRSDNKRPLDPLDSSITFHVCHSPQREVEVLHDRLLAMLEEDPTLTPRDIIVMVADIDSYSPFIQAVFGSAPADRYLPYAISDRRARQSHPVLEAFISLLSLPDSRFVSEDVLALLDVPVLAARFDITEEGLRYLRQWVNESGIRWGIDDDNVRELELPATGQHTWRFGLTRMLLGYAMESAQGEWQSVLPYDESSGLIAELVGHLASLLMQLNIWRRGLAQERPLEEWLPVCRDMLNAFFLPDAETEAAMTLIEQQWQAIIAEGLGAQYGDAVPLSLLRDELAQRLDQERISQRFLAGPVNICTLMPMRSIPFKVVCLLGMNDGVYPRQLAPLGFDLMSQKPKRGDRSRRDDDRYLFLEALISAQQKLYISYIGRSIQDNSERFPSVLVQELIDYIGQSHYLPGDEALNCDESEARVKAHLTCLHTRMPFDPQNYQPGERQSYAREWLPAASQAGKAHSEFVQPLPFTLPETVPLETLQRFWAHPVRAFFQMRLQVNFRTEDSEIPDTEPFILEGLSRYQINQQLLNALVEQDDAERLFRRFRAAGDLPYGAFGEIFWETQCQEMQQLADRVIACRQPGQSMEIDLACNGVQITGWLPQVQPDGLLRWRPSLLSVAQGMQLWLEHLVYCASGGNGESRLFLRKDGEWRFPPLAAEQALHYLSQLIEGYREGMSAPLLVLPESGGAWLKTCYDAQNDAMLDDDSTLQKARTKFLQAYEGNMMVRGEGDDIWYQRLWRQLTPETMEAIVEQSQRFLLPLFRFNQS
Description: as §1, with “(Eichler, D. C.; Lehman, I. R., J. Biol. Chem. 1977, 252, 499-503).” left out, “RecBCD assays used the same condition but with 25 μM ATP.” left out

Row | SMILES | IC50 (E. coli gyrase) | growth of cells infected with T4 gene 2 mutant phage (in words) [1] | growth of cells without phage infection (in words) (E. coli) | also measured
1 | CCn1cc(C(=O)O)c(=O)c2cnc(N3CCN(C(=S)NCc4ccccc4)CC3)nc21 [Compound 36] | < 200 µM | AddAB-specific | – | –
2 | CCn1cc(C(=O)O)c(=O)c2cnc(N3CCN(C(=S)NC(=O)c4cccnc4)CC3)nc21 [Compound 37] | < 200 µM and 80 µM | – | inhibited growth without phage infection, but only of cells with AddAB | –
3 | CCn1cc(C(=O)O)c(=O)c2cnc(N3CCN(C(=S)Nc4ccccc4Cl)CC3)nc21 [Compound 26] | – | – | inhibited growth without phage infection, but only of cells with AddAB | –
4 | C=CCNC(=S)N1CCN(c2ncc3c(=O)c(C(=O)O)cn(CC)c3n2)CC1 [Compound 25] | – | – | inhibited growth without phage infection, but only of cells with AddAB | –
5 | CCn1cc(C(=O)O)c(=O)c2cnc(N3CCN(C(=S)Nc4ccc5c(c4)OCCO5)CC3)nc21 [Compound 34] | – | AddAB-specific | – | –
6 | CCn1cc(C(=O)O)c(=O)c2cnc(N3CCN(C(=S)Nc4ccccc4)CC3)nc21 [Compound 30] | < 200 µM | – | – | IC50 (H. pylori AddAB): 46 µM; IC50 (E. coli RecBCD): 20 µM
7 | N#Cc1c(NC(=O)c2ccccc2C(=O)O)sc2c1CCCC2 [Compound 39] | – | AddAB-specific | – | –
8 | CCn1cc(C(=O)O)c(=O)c2cnc(N3CCN(C(=S)NC)CC3)nc21 [Compound 33] | < 200 µM and 80 µM | – | – | –
9 | CCn1cc(C(=O)O)c(=O)c2cnc(N3CCN(C(=S)Nc4ccc5c(c4)OCO5)CC3)nc21 [Compound 35] | < 200 µM and 40 µM | AddAB-specific | – | –
10 | CCn1cc(C(=O)O)c(=O)c2cnc(N3CCN(C(=S)NC(=O)c4ccco4)CC3)nc21 [Compound 22] | < 200 µM and 80 µM | – | – | –
